Measured values: patent US11963962B2, “Platelet count-agnostic methods of treating myelofibrosis” (Sierra Oncology, Inc., priority 2018, dated 2024)
Marks after values point to notes of the source that are not given here.

Key:
Format in all cases: in vivo, human
myelofibrosis [1] = test: SIMPLIFY-1 Phase 3 trial: transfusion independence and TD to TI conversion; details: for TI rate Responders / TI rate proportion (Wilson 95% CI) / TI rate Absolute risk difference (Newcombe 95% CI): SIMPLIFY 1, week 24; for TI rate Absolute risk difference (Newcombe 95% CI) / TD to 12w rolling TI Absolute risk difference (Newcombe 95% CI) / TD to W24 TI Absolute risk difference (Newcombe 95% CI): MMB vs Control
Excerpt: The improved outcome from MMB therapy that results from practicing the subject methods can be manifested as an improvement in one or more clinical endpoints (e.g., as described herein), such as anemia response, in spleen response and/or symptom response. By “anemia response” is meant an increase in the patient's hemoglobin level or a patient who was transfusion dependent becoming transfusion independent. Desirably, a minimum increase in hemoglobin of 0.5 g/dL, such as 1.0 g/dL 1.5 g/dL or 2.0 g/dL lasting a minimum of 8 weeks is achieved, which is the level of improvement specified in the International Working Group (IWG) consensus criteria. However, smaller, but still medically significant, increases in hemoglobin are also considered to be within the term “anemia response”. “Transfusion independence” is an anemia endpoint and refers to a subject who required no RBC transfusions over a 12 week period and had no hemoglobin levels less than 8 g/dL to 8.5 g/dL over the 12 week period. In some embodiments, the 12 week period of transfusion independence is the terminal 12 weeks of a 24 week study period. By red blood cell (RBC) transfusion independence rate at week 24 of a study is meant the proportion of subjects who were transfusion independent at week 24, excluding cases associated with clinically overt bleeding.
(§1) In the SIMPLIFY-1 trial (NCT01969838), the efficacy and safety of MMB versus ruxolitinib (RUX) was studied in patients with myelofibrosis who were naïve to treatment with a JAK inhibitor and a platelet count of ≥50×10^9/L. Patients (N=432) with high risk or intermediate-2 risk or symptomatic intermediate-1 risk myelofibrosis received 24 weeks of treatment with 200 mg MMB once daily or 20 mg RUX twice a day (or per label), after which all patients could receive open-label momelotinib. […] The primary endpoint was a reduction by at least 35% in the spleen volume at 24 weeks compared with baseline.
(§2) FIG. 8A: SIMPLIFY-1 study of MMB in a first line population previously untreated with JAKi. For SIMPLIFY-1, the goal was non-inferiority over ruxolitinib (RUX) (MMB: N=215 subjects, and RUX: N=217 subjects). FIG. 8B: SIMPLIFY-2 study of second line population of anemic or thrombocytopenic subjects previously treated with RUX (red blood cell (RBC) transfusions on RUX=64%. RUX dose adjustment for: thrombocytopenia=21%; anemia/hematoma=35%). For SIMPLIFY-2, the goal was superiority over best available treatment (BAT) (MMB: N=104 subjects, and BAT: N=52 subjects). In both SIMPLIFY-1 and SIMPLIFY: Primary endpoint: >=35% reduction in spleen volume at 24 weeks. Secondary endpoints: Total symptom score (TSS) response at 24 weeks. Effects on RBC transfusion requirements.
(§3) The SIMPLIFY 1 clinical trial data was reanalyzed for subgroups of subjects having particular baseline platelet counts in the MMB versus RUX arms of the study.
(§4) Patient data was analyzed according to the following baseline platelet count (PLT) subgroups and in particular according to the threshold PLT of 150×10^9/L: 1) PLT<50×10^9/L; 2) 50×10^9/L≤PLT<100×10^9/L; 3) 100×10^9/L≤PLT<150×10^9/L. The reanalyzed data is presented in Table 13 (SIMPLIFY 1). Selected data is also illustrated in the following figures.

myelofibrosis [2] = test: SIMPLIFY-1 Phase 3 trial: splenic response rate (SRR); details: for SRR Responders / SRR proportion (Wilson 95% CI) / SRR Absolute risk difference (Newcombe 95% CI): SIMPLIFY 1, 24 weeks; for SRR Absolute risk difference (Newcombe 95% CI): MMB vs Control
Protocol: as §1, §2, §3, §4

myelofibrosis [3] = test: SIMPLIFY-2 Phase 3 trial: overall survival
Excerpt: In the SIMPLIFY-2 trial (NCT02101268), the efficacy and safety of MMB was studied in anemic or thrombocytopenic subjects with myelofibrosis who were previously treated with ruxolitinib (RUX). […] Specifically, anemic or thrombocytopenic myelofibrosis patients who had and were previously treated with (RUX) (for at least 28 days) were studied over 24 weeks for response to MMB versus best available treatment (BAT), primarily RUX (89% of patients) but alternatively no treatment or other standard interventions, after which period all patients could receive extended MMB treatment. Previously treated RUX patients who either required red blood cell transfusions or RUX dose reduction with grade 3 thrombocytopenia, anemia, and/or bleeding at grade 3 or worse, with palpable spleen of at least 5 cm and without grade 2 or greater peripheral neuropathy were included in the trial. There was no lower limit for the required baseline platelet count. The primary endpoint was a reduction by at least 35% in the spleen volume at 24 weeks compared with baseline.

[4] = SIMPLIFY 1, 50 ≤ PLT < 100 ×10^9/L
[5] = SIMPLIFY 1, 100 ≤ PLT < 150 ×10^9/L
[6] = SIMPLIFY-1, switch from Transfusion Dependent to Independent

SMILES: Cl.N#CCNC(=O)c1ccc(-c2ccnc(Nc3ccc(N4CCOCC4)cc3)n2)cc1 [MMB, N-(cyanomethyl)-4-(2-(4-morpholinophenylamino)pyrimidin-4-yl)benzamide]
- patients with transfusion independence promoted and maintained (TI rate) (myelofibrosis [1]; SIMPLIFY 1): 66%
- TI rate Responders (myelofibrosis [1]; 50 ≤ PLT < 100 ×10^9/L): 11
- TI rate proportion (Wilson 95% CI) (myelofibrosis [1]; 50 ≤ PLT < 100 ×10^9/L): 0.61
- TI rate Absolute risk difference (Newcombe 95% CI) (myelofibrosis [1]; 50 ≤ PLT < 100 ×10^9/L): 0.22
- TI rate Responders (myelofibrosis [1]; 100 ≤ PLT < 150 ×10^9/L): 18
- TI rate proportion (Wilson 95% CI) (myelofibrosis [1]; 100 ≤ PLT < 150 ×10^9/L): 0.62
- TI rate Absolute risk difference (Newcombe 95% CI) (myelofibrosis [1]; 100 ≤ PLT < 150 ×10^9/L): 0.17
- TI rate Responders (myelofibrosis [1]; ITT): 143
- TI rate proportion (Wilson 95% CI) (myelofibrosis [1]; ITT): 0.67
- TI rate Absolute risk difference (Newcombe 95% CI) (myelofibrosis [1]; ITT): 0.17
- TD to 12w rolling TI Responders (myelofibrosis [1]; [4]): 4
- TD to 12w rolling TI proportion (Wilson 95% CI) (myelofibrosis [1]; [4]): 0.40
- TD to W24 TI Responders (myelofibrosis [1]; [4]): 5
- TD to W24 TI proportion (Wilson 95% CI) (myelofibrosis [1]; [4]): 0.50
- TD to 12w rolling TI Absolute risk difference (Newcombe 95% CI) (myelofibrosis [1]; [4]): 0.22
- TD to W24 TI Absolute risk difference (Newcombe 95% CI) (myelofibrosis [1]; [4]): 0.32
- TD to 12w rolling TI Responders (myelofibrosis [1]; [5]): 5
- TD to 12w rolling TI proportion (Wilson 95% CI) (myelofibrosis [1]; [5]): 0.45
- TD to W24 TI Responders (myelofibrosis [1]; [5]): 4
- TD to W24 TI proportion (Wilson 95% CI) (myelofibrosis [1]; [5]): 0.36
- TD to 12w rolling TI Absolute risk difference (Newcombe 95% CI) (myelofibrosis [1]; [5]): 0.15
- TD to W24 TI Absolute risk difference (Newcombe 95% CI) (myelofibrosis [1]; [5]): 0.21
- TD to 12w rolling TI Responders (myelofibrosis [1]; SIMPLIFY 1, ITT): 19
- TD to 12w rolling TI proportion (Wilson 95% CI) (myelofibrosis [1]; SIMPLIFY 1, ITT): 0.36
- TD to W24 TI Responders (myelofibrosis [1]; SIMPLIFY 1, ITT): 16
- TD to W24 TI proportion (Wilson 95% CI) (myelofibrosis [1]; SIMPLIFY 1, ITT): 0.30
- TD to 12w rolling TI Absolute risk difference (Newcombe 95% CI) (myelofibrosis [1]; SIMPLIFY 1, ITT): 0.11
- TD to W24 TI Absolute risk difference (Newcombe 95% CI) (myelofibrosis [1]; SIMPLIFY 1, ITT): 0.13
- Week 24 TI rate (myelofibrosis [1]; SIMPLIFY 1, ITT, all patients): 67%
- Week 24 TI rate (myelofibrosis [1]; SIMPLIFY 1, ITT, platelets 50-100 (subgroup 2)): 61%
- Week 24 TI rate (myelofibrosis [1]; SIMPLIFY 1, ITT, platelets 100-150 (subgroup 3)): 62%
- Week 24 TI rate (myelofibrosis [1]; SIMPLIFY 1, baseline TSS ≥ 6, all patients): 67%
- Week 24 TI rate (myelofibrosis [1]; SIMPLIFY 1, baseline TSS ≥ 6, platelets 50-100 (subgroup 2)): 64%
- Week 24 TI rate (myelofibrosis [1]; SIMPLIFY 1, baseline TSS ≥ 6, platelets 100-150 (subgroup 3)): 68%
- Week 24 TI rate (myelofibrosis [1]; SIMPLIFY 1, baseline TSS ≥ 10, all patients): 67%
- Week 24 TI rate (myelofibrosis [1]; SIMPLIFY 1, baseline TSS ≥ 10, platelets 50-100 (subgroup 2)): 64%
- Week 24 TI rate (myelofibrosis [1]; SIMPLIFY 1, baseline TSS ≥ 10, platelets 100-150 (subgroup 3)): 68%
- ≥8 week transfusion independence rate (myelofibrosis [1]; [6]): 58.5%
- ≥12 week transfusion independence rate (myelofibrosis [1]; [6]): 49.1%
- SRR Responders (myelofibrosis [2]; 50 ≤ PLT < 100 ×10^9/L): 7
- SRR proportion (Wilson 95% CI) (myelofibrosis [2]; 50 ≤ PLT < 100 ×10^9/L): 0.39
- SRR Absolute risk difference (Newcombe 95% CI) (myelofibrosis [2]; 50 ≤ PLT < 100 ×10^9/L): 0.39
- SRR Responders (myelofibrosis [2]; 100 ≤ PLT < 150 ×10^9/L): 4
- SRR proportion (Wilson 95% CI) (myelofibrosis [2]; 100 ≤ PLT < 150 ×10^9/L): 0.14
- SRR Absolute risk difference (Newcombe 95% CI) (myelofibrosis [2]; 100 ≤ PLT < 150 ×10^9/L): 0.08
- SRR Responders (myelofibrosis [2]; ITT): 57
- SRR proportion (Wilson 95% CI) (myelofibrosis [2]; ITT): 0.27
- SRR Absolute risk difference (Newcombe 95% CI) (myelofibrosis [2]; ITT): −0.03
- subjects who did not achieve a spleen response on ruxolitinib but did so after 24 weeks of additional momelotinib treatment (myelofibrosis [2]; SIMPLIFY 1, crossover arm): 16.5%
- spleen response (SRR) at any time in the open label phase (myelofibrosis [2]; SIMPLIFY 1, momelotinib arm): 46.2%
- SRR (myelofibrosis [2]; SIMPLIFY 1, overall): 26.5%
- SRR (myelofibrosis [2]; SIMPLIFY 1, week 24, ITT, all patients): 27%
- SRR (myelofibrosis [2]; SIMPLIFY 1, week 24, ITT, platelets 50-100 (subgroup 2)): 39%
- SRR (myelofibrosis [2]; SIMPLIFY 1, week 24, ITT, platelets 100-150 (subgroup 3)): 14% ‡
- SRR (myelofibrosis [2]; SIMPLIFY 1, week 24, baseline TSS ≥ 6, all patients): 25%
- SRR (myelofibrosis [2]; SIMPLIFY 1, week 24, baseline TSS ≥ 6, platelets 50-100 (subgroup 2)): 43%
- SRR (myelofibrosis [2]; SIMPLIFY 1, week 24, baseline TSS ≥ 6, platelets 100-150 (subgroup 3)): 14% ‡
- SRR (myelofibrosis [2]; SIMPLIFY 1, week 24, baseline TSS ≥ 10, all patients): 24%
- SRR (myelofibrosis [2]; SIMPLIFY 1, week 24, baseline TSS ≥ 10, platelets 50-100 (subgroup 2)): 42%
- SRR (myelofibrosis [2]; SIMPLIFY 1, week 24, baseline TSS ≥ 10, platelets 100-150 (subgroup 3)): 13% ‡
- spleen response compared with RUX (myelofibrosis [2]; SIMPLIFY 1, p=0.011): statistically non-inferior to RUX
- mOS (myelofibrosis [3]): 28 months
